From ChEMBL document CHEMBL1671616, “Bloodstream infections caused by extended-spectrum-beta-lactamase- producing Escherichia coli: risk factors for inadequate initial antimicrobial therapy” (2008)

What was measured:
Type in all cases: functional
Escherichia coli [1] = assay: Antimicrobial activity against ESBL producing Escherichia coli isolated from patient bloodstream assessed as resistant isolate by Etest method
Escherichia coli [2] = assay: Antimicrobial activity against ESBL producing Escherichia coli isolated from patient bloodstream assessed as resistant isolate by Etest method in presence of clavulanic acid
Escherichia coli [3] = assay: Antimicrobial activity against ESBL producing Escherichia coli isolated from patient bloodstream assessed as resistant isolate by Etest method in presence of Tazobactam

Row | Molecule | Activity (Escherichia coli [1]) | other results
1 | NCC[C@H](O)C(=O)N[C@@H]1C[C@H](N)[C@@H](O[C@H]2O[C@H](CN)[C@@H](O)[C@H](O)[C@H]2O)[C@H](O)[C@H]1O[C@H]1O[C@H](CO)[C@@H](O)[C@H](N)[C@H]1O [AMIKACIN] | 0% | 
2 | CC1(C)S[C@@H]2[C@H](NC(=O)[C@H](N)c3ccc(O)cc3)C(=O)N2[C@H]1C(=O)O [AMOXICILLIN] |  | Activity (Escherichia coli [2]): 30.2%
3 | O=C(O)c1cn(C2CC2)c2cc(N3CCNCC3)c(F)cc2c1=O [CIPROFLOXACIN] | 92.2% | 
4 | C[C@@H](O)[C@H]1C(=O)N2C(C(=O)O)=C(SCCNC=N)C[C@H]12 [IMIPENEM ANHYDROUS] | 0% | 
5 | C[C@H]1COc2c(N3CCN(C)CC3)c(F)cc3c(=O)c(C(=O)O)cn1c23.C[C@H]1COc2c(N3CCN(C)CC3)c(F)cc3c(=O)c(C(=O)O)cn1c23.O [LEVOFLOXACIN] | 92.2% | 
6 | C[C@@H](O)[C@H]1C(=O)N2C(C(=O)O)=C(S[C@@H]3CN[C@H](C(=O)N(C)C)C3)[C@H](C)[C@H]12 [MEROPENEM] | 0% | 
7 | C[C@]1(Cn2ccnn2)[C@H](C(=O)O)N2C(=O)C[C@H]2S1(=O)=O [TAZOBACTAM] |  | Activity (Escherichia coli [3]): 15.5%
8 | GENTAMICIN | 33.3% | 
